Reference: patent US8282935B2 (priority 2001, dated 2012)

Tested on: A2 molecules
Type: binding, human

For “M L L A V L Y C L (SEQ ID NO: 5) [tyrosinase 1-9]”, the “binding affinity for A2 molecules” value was “significantly lower affinity”.
